Columns and labels:
[1] = tested on: reconstituted NT5C2low B-ALL cells; experiment: Resistance to 6-MP in reconstituted NT5C2low B-ALL cells expressing NT5C2 isoforms; type: cell-based
Source text: FIGS. 8A-8C: Possible effects of phosphorylation of the NT5C2 activity. (FIG. 8A) Predicted serine and threonine phosphorylation sites in the NT5C2 amino acid sequence. […] (SEQ ID NOS: 5-24) (FIG. 8B) Top ten kinases predicted to phosphorylate the NT5C2 exon NT5ex4a-encoded peptide. (FIG. 8C) Increased pro-survival activity of NT5C2 E4a isoform where the Ser-121 has been replaced by a phosphomimetic aspartic acid (S121D). Compare curves with rectangles and triangles.
(§1) Consistent with this biochemical finding, in reconstituted NT5C2low B-ALL cells NT5ex4a conferred the same level of resistance to 6-MP as the variant with the R238W hotspot mutation (2-log difference in IC50). […] Therefore, inclusion of NT5C2 exon 4a phenocopies relapse-specific mutations and could serve as both a valuable predictive biomarker in B-ALL and potentially chronic myelogenous (CML) and acute myeloid leukemia (AML).
To determine the mechanism underlying the pro-survival activity of the NT5C2 E4a isoform, it was considered that it might be phosphorylated. Indeed, the application of predictive algorithms identified serine at position 121 as the residue in exon NT5ex4a most likely to be phosphorylated (FIG. 8A). Based on the amino acid context, it most strongly resembles consensus sites for kinases of the AGC, CAMK, and PIKK families. The latter includes such important cancer-related kinases as ATR and ATM (FIG. 8B). […]

697 cell line = experiment: 6-MP dose-response in CRISPR/Cas9 NT5C2-KO model, 697; type: cell-based
Source text: (§2) FIG. 4: NT5C2 KO in MHHCALL4. (Top left panel) CRISPR/CAS9 strategy for the generation of total NT5C2 or NT5ex4a isoform specific KOs, representing the exons that will be targeted for each model. (Top right panel) Western-Blot of the NT5C2 levels on the parental, NT5C2-KO and NT5ex4a (E4a) KO models in the 697 and MHHCALL4 cell lines.

MHHCALL4 cell line = experiment: 6-MP dose-response in CRISPR/Cas9 NT5C2-KO and NT5ex4a (E4a) KO models, MHHCALL4; type: cell-based
Source text: as §2, §1

[2] = tested on: REH cells over-expressing the WT, E4a or R238W NT5C2 isoforms; experiment: 6-MP chemoresistance in vivo in xenografted B-ALL cells expressing NT5C2 isoforms; design: species or system mice; conditions: xenografted B-ALL cells expressing NT5ex4a
Source text: FIG. 5: NT5C2 E4a alternative isoform in 6-MP resistance. (Left panel) Bioluminescent mouse image of mice engrafted with REH cells over-expressing the WT, E4a or R238W NT5C2 isoforms at different time points. (Right panel) Flux quantification of mice engrafted with REH cells over-expressing the WT, E4a or R238W NT5C2 isoforms at different time points.
as §1

[3] = tested on: B-ALL cells expressing NT5ex4a; experiment: In vitro sensitivity to mizoribine of cells expressing the non-canonical NT5C2 isoform; type: cell-based; conditions: expression of the non-canonical isoform NT5ex4a
Source text: FIG. 6: Mizoribine specifically blocks the […], adding extra pressure in NT5C2 hyperactive cells (Dieck et al., Blood, 2019). (Left panel) Mechanism of action of 6-MP and 6-TG purine analogs. (Right panel) Effects of NT5C2 activating-mutations on purine bases synthesis and degradation.
as §1

| SMILES | survival in the presence of 6-MP ([1]; E4a isoform with Ser-121 replaced by aspartic acid (S121D) versus parental E4a or the alanine derivative) | difference in IC50 (resistance to 6-MP) ([1]; NT5ex4a, same level of resistance as the R238W hotspot mutation variant, compared to the canonical isoform) | sensitivity to 6-MP treatment (dose-response plots) (697 cell line) | cell survival in the presence of 6-MP (MHHCALL4 cell line; CRISPR/Cas9 engineered NT5ex4a KO cells) | sensitivity to 6-MP treatment (dose-response plots) (MHHCALL4 cell line; E4a-KO, E4a-high expression MHHCALL4) | sensitivity to 6-MP treatment (dose-response plots) (MHHCALL4 cell line; NT5C2-KO, MHHCALL4) | chemoresistance in vivo [2] | sensitivity to mizoribine [3] |
| --- | --- | --- | --- | --- | --- | --- | --- | --- |
| S=c1nc[nH]c2nc[nH]c12 [6-MP, mercaptopurine] | stronger survival advantages | 2 log | increased sensitivity | reduced cell survival | increased sensitivity | increased sensitivity | chemoresistance in vivo was further confirmed | – |
| NC(=O)c1ncn([C@@H]2O[C@H](CO)[C@@H](O)[C@H]2O)c1O [mizoribine, 4-carbamoyl-1-β-d-ribofuranosyl imirdozolium] | – | – | – | – | – | – | – | collateral sensitivity |

Reference: patent US20250320562A1, “ALTERNATIVELY SPLICED ISOFORM IN CANCER AND METHODS OF USE THEREOF” (THE CHILDREN'S HOSPITAL OF PHILADELPHIA, priority 2022, published 2025)
